In PubChem BioAssay AID464 (The Scripps Research Institute Molecular Screening Center, 2006) one finds CC50 data, which are given here for 95 molecules.

A word on the CC50: it is the concentration at which the toxic effect on the cells reaches its halfway point.

Activity calls are given as the source filed them.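 How the source made its calls: active means Compounds that kill half the cells at a concentration of 5 micromolar or below, from the fitted or estimated CC50; inactive means CC50 above 5 micromolar.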 Some results are limits rather than exact numbers.

The test system of this assay is Jurkat E6.1 viability, ATP luminescence, 48 h. The assay is described as follows: Jurkat E6.1 cell cytotoxicity, CC50 determination, dose response, cytotoxicity control, ATP luminescence, 48 h, 60K MLSMR (AID 464).
Regarding `O=C(NCc1cccs1)c1nc2c(nnn2Cc2ccccc2Cl)c(=O)[nH]1`, the CC50 was 14.8 µM (inactive).

For `CCOC(=O)CSC1=C(C#N)C(c2sccc2C)CC(=O)N1` (stereo not given), the cytotoxic concentration (CC50) was 1.91 µM.

Take `CCOC(=O)C(C)Oc1cccc2c(=O)n(CC(=O)NCc3ccco3)ccc12` (stereo not given): the CC50 was 1.1 µM.

As for `CCOC(=O)C1=C(N)n2c(s/c(=C\c3cccs3)c2=O)=C(C(=O)OCC)C1c1cccs1` (stereo not given), the cytotoxic concentration (CC50) was 4.39 µM.

As to `O=C(c1ccco1)N1CCN(C(=O)N2c3ccccc3Sc3ccccc32)CC1`, the half-maximal cytotoxic concentration (CC50) is 0.099 µM.

Regarding `CC(=O)Nc1ccccc1N(C)S(=O)(=O)c1ccc(C)cc1`, the CC50 was 4.57 µM.

Regarding `O=C(NCC(c1cccs1)N1CCOCC1)c1ccc(Cl)s1` (stereo not given), the CC50 was 0.882 µM.

As to `Clc1ccc(CCNc2ncnc3nc[nH]c23)cc1`, the CC50 was 19.6 µM (inactive).

Take `Cc1ccc(S(=O)(=O)Nc2ccc3ncccc3c2)cc1`: the CC50 was 10.7 µM (inactive).

`CC(=O)N1c2ccccc2N(Cc2ccc(C)cc2C)C(=O)C1(C)C`: the CC50 was 2.22 µM.

Turning to `CCCCCCc1ccc(-c2ncc(N)cn2)cc1`, the CC50 was 28.5 µM (inactive).

As to `Cn1c(C(=O)NCCc2c[nH]c3ccccc23)cc2sccc21`, the CC50 is > 40 µM (inactive).

In the case of `COc1ccccc1C1CC(=O)Nc2cc3c(cc21)OCCO3` (stereo not given), the 50% cytotoxic concentration (CC50) was 0.912 µM.

As for `COc1ccc(Nc2nc(N3CCCC3)nc3ccccc23)c(OC)c1`, the CC50 was 21.9 µM (inactive).

Take `O=C(Cc1ccc(-n2cccc2)cc1)NCc1cccs1`: the cytotoxic concentration (CC50) is 0.513 µM.

Regarding `CCN(CC)S(=O)(=O)c1cc(C(=O)Nc2ccncc2)ccc1Cl`, the CC50 is 8.55 µM (inactive).

On to `COCCOC(=O)c1[nH]c2c(c1C)C(=O)CC(c1cc(OC)ccc1OC)C2` (stereo not given), for which the CC50 was 4.2 µM.

In the case of `Cc1cccc(Cn2c(NCCO)nc3c2c(=O)n(C)c(=O)n3C)c1`, the 50% cytotoxic concentration (CC50) is 2.32 µM.

Turning to `CCOc1cccc(-n2nnnc2-c2ccc(OC)cc2)c1`, the CC50 is 1.06 µM.

Consider `CN(C)CC(C(=O)c1ccccc1)c1ccccc1` (stereo not given), for which the cytotoxic concentration (CC50) is 3.91 µM.

For the molecule `COc1ccc(C(=O)c2ccc(N(C)C)cc2)c(OC)c1`, the CC50 was 1.5 µM.

As to `O=C(CCCCn1c(=O)c2ccccc2n(Cc2ccc(F)cc2)c1=O)NCc1ccco1`, the CC50 was 9.14 µM (inactive).

Regarding `COc1cc(Cn2c(-c3nonc3N)nc3ccccc32)ccc1C`, the CC50 is 1.55 µM.

For the molecule `CCOC(=O)CSC1=C(C#N)C(c2ccc(C)s2)CC(=O)N1` (stereo not given), the CC50 was 1.56 µM.

For the molecule `Cc1cc(NC(c2cccnc2)c2ccc3cccnc3c2O)no1` (stereo not given), the half-maximal cytotoxic concentration (CC50) was 3.25 µM.

For `CCN(Cc1ccccc1)S(=O)(=O)c1ccc(C(=O)Nc2nnc(C3CC3)o2)cc1`, the CC50 was 32.5 µM (inactive).

Consider `CCOc1cc(C#N)c(NC(=O)c2cccnc2)cc1OCC`, for which the CC50 is 1.51 µM.

As to `CN(Cc1ccccc1)S(=O)(=O)c1ccc(C(=O)Nc2nnc(C3CC3)o2)cc1`, the CC50 was 26 µM (inactive).

As to `CC(C)Cc1cc(C(=O)Nc2cc(Br)ccc2O)no1`, the CC50 is > 40 µM (inactive).

Consider `CCOc1ccccc1N1CC(O)=C(c2nc3ccccc3s2)C1=N`, for which the CC50 was 1.84 µM.

For the molecule `O=C(Nc1ccc2c(c1)nc1n2CCCCC1)c1cc(S(=O)(=O)N2CCOCC2)ccc1Cl`, the CC50 was 21.1 µM (inactive).

Regarding `O=C(CSc1nc(-c2ccco2)cc(C(F)(F)F)n1)Nc1ccc2c(c1)OCO2`, the CC50 was 5.19 µM (inactive).

With `CCN(C)c1ccc(/C=N\n2nnnc2N)cc1`, the CC50 is 4.71 µM.

As to `Cn1cc(/C=N/n2cnc3scc(-c4ccc(Cl)cc4)c3c2=O)c2ccccc21`, the CC50 was 0.373 µM.

Consider `COC(=O)c1[nH]c2c(c1C)C(=O)CC(c1cc(OC)ccc1OC)C2` (stereo not given), for which the CC50 was 3.89 µM.

`O=C(CN1CCC(c2nc3ccccc3s2)CC1)NCc1cccs1`: the CC50 was 18 µM (inactive).

For the molecule `COc1cccc(Cn2c(-c3nonc3N)nc3ccccc32)c1`, the 50% cytotoxic concentration (CC50) is 1.06 µM.

As to `CCN=c1scc(-c2ccc3c(c2)NC(=O)CO3)n1N=C1CCCC1`, the CC50 is 8.47 µM (inactive).

In the case of `CCN1CCN(c2ncc3c(n2)CC(c2cc(OC)c(OC)c(OC)c2)CC3=O)CC1` (stereo not given), the CC50 is 2.26 µM.

On to `COC(=O)C1=C(N)Oc2cc(N(C)C)ccc2C1c1ccccc1OC` (stereo not given), for which the 50% cytotoxic concentration (CC50) was 2.6 µM.

With `CCN(CC)S(=O)(=O)c1cccc(C(=O)Nc2nc3cc4c(cc3s2)OCCO4)c1`, the CC50 is 12.8 µM (inactive).

As for `Cc1ccc2c(CC(=O)NCc3ccco3)coc2c1C`, the CC50 was 7.99 µM (inactive).

Consider `COc1ccc(CCNc2nnc(Sc3nnnn3-c3ccccc3)s2)cc1OC`, for which the CC50 is 0.875 µM.

Regarding `CCOc1ccc(-c2[nH]ncc2-c2ccc(OC)c(OC)c2)c(O)c1`, the 50% cytotoxic concentration (CC50) is 1.21 µM.

With `Cc1nc2ccccn2c1-c1csc(NCc2ccco2)n1`, the CC50 was > 40 µM (inactive).

For `CCOC(=O)Nc1cc(=O)c2ccccc2o1`, the CC50 was > 4.4 µM (inactive).

As for `Cc1noc(C)c1COc1cccc(C(=O)OCC(=O)N2CC(=O)Nc3ccccc32)c1`, the CC50 is 6.33 µM (inactive).

With `Cn1nc(-c2ccc(OCC(=O)N3CCN(Cc4ccccc4)CC3)cc2)c2ccccc2c1=O`, the CC50 was 9.14 µM (inactive).

Consider `CCCOC(=O)c1[nH]c2c(c1C)C(=O)CC(c1cc(OC)c(OC)c(OC)c1)C2` (stereo not given), for which the CC50 is 23.8 µM (inactive).

Take `CCCN1CCN(c2ncnc3c2nnn3Cc2ccccc2)CC1`: the CC50 is 9.22 µM (inactive).

In the case of `COc1ccc(C2=Nn3c(nnc3-c3ccc(OC)cc3)SC2)cc1`, the CC50 was 0.325 µM.

As to `CCOC(=O)NC1(Nc2ccc(Cl)cn2)Oc2ccccc2O1`, the CC50 is 12.5 µM (inactive).

Regarding `OCCN1CCN(C(c2cccs2)c2ccc3cccnc3c2O)CC1` (stereo not given), the CC50 is 13.5 µM (inactive).

Regarding `CC1CC(C)CN(S(=O)(=O)c2ccc(C(=O)Nc3nnc(-c4cccs4)o3)cc2)C1` (stereo not given), the CC50 is 12.9 µM (inactive).

For the molecule `c1csc(CCNc2ncnc3sc4c(c23)CCC4)c1`, the CC50 was 13.2 µM (inactive).

With `COc1cccc(OC)c1-c1nn2c(-c3cc(-c4ccccc4)n[nH]3)nnc2s1`, the CC50 was 8.6 µM (inactive).

With `O=C(NCc1cccs1)C1CCN(c2ccc(S(=O)(=O)N3CCOCC3)cc2Cl)CC1`, the CC50 is 0.875 µM.

On to `O=C(Nc1nnc(-c2cccs2)o1)c1cccc(F)c1`, for which the CC50 was 21.7 µM (inactive).

Take `CN(CC1CCCO1)S(=O)(=O)c1ccc(C(=O)Nc2nc(-c3ccccn3)cs2)cc1` (stereo not given): the CC50 was 10.5 µM (inactive).

For the molecule `CCOC(=O)c1[nH]c2c(c1C)C(=O)CC(c1ccco1)C2` (stereo not given), the 50% cytotoxic concentration (CC50) was 0.201 µM.

With `COc1ccc(N=Cc2c(O)[nH]c3ccccc23)cc1OC`, the CC50 is 11.3 µM (inactive).

For the molecule `CCOc1ccccc1NC(=O)CN(c1ccc(OC)cc1)S(=O)(=O)c1c(C)noc1C`, the CC50 is 1.37 µM.

`COc1ccc(-c2cc(N)n(S(=O)(=O)c3c(F)c(F)c(F)c(F)c3F)n2)cc1OC`: the CC50 is 2.01 µM.

In the case of `Cc1cc(C)c2ccc(N)nc2c1O`, the CC50 was 6.83 µM (inactive).

Turning to `O=C(CC(=O)c1ccccc1O)c1cccc(F)c1`, the CC50 is > 40 µM (inactive).

Take `O=C(Nc1ccccc1C(F)(F)F)c1cc(-c2ccccc2O)on1`: the CC50 is > 40 µM (inactive).

For the molecule `CCCCCCn1c2c(c(=N)c3c1CCC3)CCC2`, the cytotoxic concentration (CC50) is 0.482 µM.

As to `CN(C)c1ccc(-c2nn3c(-c4ccccc4Cl)nnc3s2)cc1`, the cytotoxic concentration (CC50) was 0.312 µM.

In the case of `CN1CCN(Cc2cc(COCc3ccccc3)c3cccnc3c2O)CC1`, the CC50 was 10.5 µM (inactive).

In the case of `N=c1c2c(n(Cc3ccc(Cl)cc3)c3c1CCC3)CCC2`, the cytotoxic concentration (CC50) is 2.06 µM.

In the case of `COc1cc(NC(=O)c2ccc3c(c2)OCO3)ccc1NC(=O)C(C)C`, the CC50 is 2.19 µM.

With `Cc1nc(C)c(C(=O)Nc2ccc(Oc3ccccc3)cc2)o1`, the CC50 was 19.4 µM (inactive).

In the case of `CC(C)c1cc(C(=O)Nc2cc(Cl)ccc2O)no1`, the CC50 is > 40 µM (inactive).

As for `O=C(Nc1ccc(Cl)cn1)c1cccc(F)c1`, the CC50 was > 4.4 µM (inactive).

`CCCn1c(NC(=O)C2CCN(S(=O)(=O)c3cccs3)CC2)nc2ccccc21`: the CC50 was > 40 µM (inactive).

With `CCCCOc1ccc(C(=O)Nc2ccncc2)cc1`, the cytotoxic concentration (CC50) is 1.79 µM.

As for `Cc1cc2c(N=O)c(NO)ccc2[nH]1`, the CC50 is 1.97 µM.

Consider `CN(C)S(=O)(=O)c1ccc(C(=O)Nc2nc(-c3cccs3)cs2)cc1`, for which the CC50 is 21.1 µM (inactive).

Turning to `COc1cc(C2CC(=O)c3c([nH]c(C(=O)OCCOC(C)C)c3C)C2)cc(OC)c1OC` (stereo not given), the CC50 is 6.55 µM (inactive).

`COc1ccccc1N1CCN(c2nc(C)nc3c2oc2ccccc23)CC1`: the CC50 was 1.04 µM.

As for `O=C(C1CC1)N1CCC(c2nc(-c3ccc(S(=O)(=O)NCC4CCCO4)cc3)no2)CC1` (stereo not given), the CC50 was 9.95 µM (inactive).

Consider `CCCNc1nc2c(c(=O)n(C)c(=O)n2C)n1CCC(C)C`, for which the CC50 is 11.9 µM (inactive).

For `CC1=C(C(=O)OCc2ccc3c(c2)OCO3)C(c2ccccc2)NC(=O)N1` (stereo not given), the CC50 is 17.3 µM (inactive).

For the molecule `CC(O)CNc1nc2c(c(=O)n(C)c(=O)n2C)n1Cc1cccc(Br)c1` (stereo not given), the CC50 is 22.5 µM (inactive).

For the molecule `O=C(CSc1nnnn1C1CC2CCC1C2)Nc1ccnc2ccccc12` (stereo not given), the CC50 was 0.092 µM.

Take `COc1ccc(C2=NOC(C(=O)NCc3ccc(F)cc3)C2)cc1OC` (stereo not given): the CC50 is 0.318 µM.

Turning to `CC(=O)c1cc2c(cc1NS(=O)(=O)c1ccc(C)cc1)OCCO2`, the CC50 is 5.05 µM (inactive).

As for `CCc1nnc(NC(=O)c2ccc(S(=O)(=O)N(CC)Cc3ccccc3)cc2)o1`, the CC50 was 26 µM (inactive).

Consider `Cn1c(CN2CCOCC2)nc2cc(NC(=O)c3ccc(Cl)cc3)ccc21`, for which the CC50 was 1.26 µM.

For `COc1cc(C2Nc3ccc4ncccc4c3C3=C2C(=O)CCC3)ccc1O` (stereo not given), the 50% cytotoxic concentration (CC50) is 2.5 µM.

Turning to `Cc1ccc(S(=O)(=O)C2(S(=O)(=O)c3ccc(C)cc3)CCCC2)cc1`, the CC50 is 3.23 µM.

As for `N#CCCn1cc(/C=N/O)c(-c2ccc(-c3ccccc3)cc2)n1`, the CC50 was 11.6 µM (inactive).

As for `CC(=O)Oc1ccc(Oc2ccc(-c3noc(C)n3)cc2)cc1`, the CC50 was > 40 µM (inactive).

In the case of `Nc1c(C(=O)NCc2ccccc2)nnn1Cc1cccc(Cl)c1`, the cytotoxic concentration (CC50) was 4.49 µM.

`Cc1cc(C(=O)CSc2nnc(NCc3ccccc3)s2)c(C)n1C`: the CC50 was 12.9 µM (inactive).
